Values joined by “and” are separate entries in the source; they are usually repeats but may differ in a detail not shown here. Identical values can stand only once.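 48-hour exposure; five concentrations; linearly interpolated endpoints. At the GI50, growth is halved. TGI marks complete inhibition of growth.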
What was measured:
Assay in all cases: growth of human tumour cells (NCI), 48 h
SN12C renal = system: SN12C renal
SK-MEL-2 melanoma = system: SK-MEL-2 melanoma
RPMI-8226 leukemia = system: RPMI-8226 leukemia
HOP-92 NSCLC = system: HOP-92 NSCLC
NCI-H522 lung = system: NCI-H522 lung
HT29 colon = system: HT29 colon
786-0 renal = system: 786-0 renal
SK-MEL-5 melanoma = system: SK-MEL-5 melanoma
A549 NSCLC = system: A549 NSCLC
NCI/ADR-RES ovarian = system: NCI/ADR-RES ovarian

Row | Compound | GI50 (SN12C renal) | TGI (SN12C renal) | GI50 (SK-MEL-2 melanoma) | TGI (SK-MEL-2 melanoma) | GI50 (RPMI-8226 leukemia) | TGI (RPMI-8226 leukemia) | GI50 (HOP-92 NSCLC) | TGI (HOP-92 NSCLC) | GI50 (NCI-H522 lung) | TGI (NCI-H522 lung) | GI50 (HT29 colon) | TGI (HT29 colon) | GI50 (786-0 renal) | TGI (786-0 renal) | GI50 (SK-MEL-5 melanoma) | TGI (SK-MEL-5 melanoma) | GI50 (A549 NSCLC) | TGI (A549 NSCLC) | GI50 (NCI/ADR-RES ovarian) | TGI (NCI/ADR-RES ovarian)
1 | Cc1ccc(NC(=O)Cc2ccc(/C=C/C(=O)c3ncc[nH]3)cc2)cc1 | 5.91 µM | > 25 µM | 18.1 µM | > 25 µM | 1790 nM | 11.8 µM | 18.5 µM | > 25 µM | 4.54 µM | 20.5 µM | 0.955 µM | 5.09 µM | 4.28 µM | > 25 µM | 18.3 µM | > 25 µM | 9.14 µM | > 25 µM | 6.73 µM | > 25 µM
2 | CC(=O)N1N=C(c2ccc(Nc3nc(Nc4ccc(Cl)cc4)nc(Nc4ccc(Cl)cc4)n3)cc2)CC1c1ccc([N+](=O)[O-])cc1 (centres undefined) | 13.4 µM | > 100 µM | 5.38 µM | > 45.6 µM | 3610 nM | 42.4 µM | 5.18 µM | 54.7 µM | 6.39 µM | > 100 µM | 4.74 µM | > 95 µM | 3.8 µM | 26.3 µM | 3.22 µM | 15.8 µM | 5.57 µM | > 86.5 µM | 5.41 µM | > 70.4 µM
3 | CC(C)(O)C#Cc1ccc(/C=C/C(=O)c2ccccc2)s1 | 18.1 µM | 32.1 µM | 17.6 µM | 33.9 µM | 3070 nM | 11.5 µM | 13.6 µM | 27.1 µM | 16 µM | 32.7 µM | 13.5 µM | 29.9 µM | 14.8 µM | 28.8 µM | 16.1 µM | 30.5 µM | 16.5 µM | 30.5 µM | 18.3 µM | 39 µM
4 | O=S(=O)(Cc1ccc(Cl)cc1Cl)c1ccc(Cl)cc1 | 1.5 µM | > 100 µM | 0.326 µM |  | 1140 nM | > 69.7 µM | 20.8 µM | > 92.5 µM | 0.282 µM | 2.27 µM | 0.338 µM | 3.84 µM | 1.84 µM | > 100 µM | 0.437 µM | 24.4 µM | 0.693 µM | > 100 µM | 0.478 µM | 3.59 µM
5 | CC(=O)O[C@@]12CO[C@@H]1C[C@H](O)[C@@]1(C)C(=O)[C@H](O)C3=C(C)[C@@H](OC(=O)[C@H](O)[C@@H](NC(=O)OC(C)(C)C)c4ccccc4)C[C@@](O)([C@@H](OC(=O)c4ccccc4)[C@H]21)C3(C)C | 0.0224 µM and 0.00869 µM | > 68.3 µM | 0.0269 µM |  | 5.7 nM and 3.74 nM | 15.6 µM |  | 59.4 µM | 0.00086 µM |  | 0.00746 µM and 0.00257 µM |  | 0.0612 µM and 0.00824 µM | > 100 µM | 0.0133 µM and 0.00609 µM | 17.1 µM | 0.00454 µM | > 82.2 µM | 0.68 µM | 9.76 µM
6 | CCC1C(=O)OCc2c1cc1n(c2=O)Cc2cc3ccccc3nc2-1 (centres undefined) |  | > 100 µM |  | > 100 µM |  | > 100 µM |  | > 100 µM |  | > 44.4 µM |  | > 100 µM |  | 27.3 µM |  | 32.1 µM |  | > 100 µM |  | > 64.7 µM
7 | C/C=C/C1=C(Cl)C(=O)[C@@H](Cl)[C@@]1(O)C(=O)OC |  | 7.15 µM |  | 7.56 µM |  | 29 µM |  | 6.22 µM |  | 2.52 µM |  | 15.4 µM |  | 18 µM |  | 16.5 µM |  | 24.3 µM |  | 6.23 µM
8 | O=C1c2cccnc2C(=O)C2C3C=CC(C3)C12 (centres undefined) |  | 29.2 µM |  | 16.9 µM |  | 8.97 µM |  | 27 µM |  | 13.8 µM |  | 60.9 µM |  | 24.2 µM |  | 23.2 µM |  | 50.8 µM |  | > 100 µM
9 | O=c1c2c3c(sc2n2c(-c4cc(-c5ccccc5)no4)nnc2n1Cc1ccccc1)CCCC3 | 22.7 µM | > 100 µM | 4 µM | 23.5 µM | 4230 nM | > 48.8 µM | 6.66 µM | > 100 µM | 3.4 µM | 28.1 µM | 29.2 µM | > 100 µM | 20.5 µM | 98.9 µM | 9.77 µM | 22.9 µM | 10.5 µM | > 86.5 µM | 30.2 µM | > 100 µM
10 | CCCc1cc(O)c2c3c(c(=O)oc2c1)CN(C)CC3 | > 100 µM | > 100 µM | > 100 µM | > 100 µM | 24200 nM | 91.2 µM | 15.7 µM | > 100 µM | 45.1 µM | > 100 µM | 39.5 µM | > 100 µM | 61.7 µM | > 100 µM | 19 µM | 44.7 µM | > 100 µM | > 100 µM | > 100 µM | > 100 µM
11 | S=C(N/N=C(/c1ccccc1)c1ccccn1)N1CCCCC1 | 0.171 µM | 2.18 µM and 2.68 µM | < 0.001 µM | 2.01 µM and 2.36 µM | < 1 nM |  | 1.16 µM | 2.27 µM and 2.81 µM | 0.422 µM | 3.13 µM and 1.71 µM | 0.0345 µM | 2.17 µM and 2.44 µM | < 0.001 µM | 1.87 µM and 1.88 µM |  | 1.38 µM and 1.56 µM | 0.00361 µM | 1.71 µM and 3.88 µM | < 0.001 µM | 1.87 µM and 0.986 µM
12 | Clc1ccc(/C=C/c2cc(N3CCOCC3)c3cc(Cl)c(Cl)cc3n2)cc1 | 1.54 µM | > 100 µM | > 100 µM | > 100 µM | 311 nM | 1.09 µM | > 100 µM | > 100 µM | 1.86 µM | > 100 µM | > 100 µM | > 100 µM | 1.37 µM | > 100 µM | > 100 µM | > 100 µM | > 100 µM | > 100 µM | > 100 µM | > 100 µM
13 | C/C=C/C/C=C/CCC(=O)[C@H]1O[C@H]1C(N)=O | 11.5 µM | 25.3 µM | 15.9 µM | 32.5 µM | 6580 nM | 54.2 µM | 10.8 µM | 26.3 µM |  | 25.6 µM |  | 31.8 µM | 14.8 µM | 36.1 µM | 12.5 µM | 25.2 µM | 17.3 µM | 51.3 µM |  | > 100 µM
14 | COc1cc(C(=O)N2N=C(c3ccc(S(C)(=O)=O)cc3)CC2c2ccco2)cc(OC)c1OC (centres undefined) | 12.3 µM | > 100 µM | 8.68 µM | > 100 µM | 647 nM | 4.36 µM | 3.65 µM | > 100 µM | 3.95 µM | > 61.6 µM | 3.17 µM | > 100 µM | 8.51 µM | > 100 µM | 2.99 µM | > 63.2 µM | 6.92 µM | > 100 µM | 6.04 µM | > 67.7 µM
15 | CCOC(=O)c1sc2ncn(Cc3cccc(Br)c3)c(=O)c2c1C | 11.7 µM | 47.3 µM | 17.7 µM | 81 µM | 27600 nM | > 100 µM | 31.1 µM | > 100 µM | 9.7 µM | 65.8 µM | 87.8 µM | > 100 µM | 33.9 µM | > 100 µM | 25.7 µM | 96 µM | 56.2 µM | > 100 µM | 18.9 µM | > 100 µM
16 | CCOc1ccccc1NC(=O)c1cc2ccccc2cc1O | 2.64 µM | 9.24 µM | 2.42 µM | 5.47 µM | 2040 nM | 6.56 µM | 1.72 µM | 5.08 µM | 2.22 µM | 6.9 µM | 8.35 µM | 25.4 µM | 3.34 µM | 9.13 µM | 1.82 µM | 3.7 µM | 3.19 µM | 11.6 µM | 3.13 µM | 14.2 µM
17 | CC(=O)Nc1ccc(/C=C/C(=O)c2ccccc2)cc1 | 12.9 µM | 29.5 µM | 19.7 µM | 35.5 µM | 3690 nM | 17.8 µM | 17.9 µM | 51.1 µM | 6.85 µM | 23.2 µM | 8.29 µM | 24.9 µM | 23.9 µM | 53.4 µM | 16.2 µM | 30.3 µM | 20.5 µM | 45.4 µM | 17.4 µM | 73.1 µM
18 | Nc1ccccc1-c1ccc([N+](=O)[O-])cc1 | 11.2 µM | > 100 µM | > 100 µM | > 100 µM | 4950 nM | > 100 µM | 17.9 µM | 97.6 µM | 11.2 µM | > 100 µM | 54.4 µM | > 100 µM | 9.16 µM | > 100 µM | 2.58 µM | > 100 µM | 4.65 µM | > 100 µM | 26.2 µM | > 100 µM
19 | COc1cc2cc(C(=O)CCC(=O)O)sc2cc1OC | > 100 µM | > 100 µM | > 100 µM | > 100 µM | > 100000 nM | > 100 µM | 37.3 µM | > 100 µM | > 100 µM | > 100 µM | 54.6 µM | > 100 µM | > 100 µM | > 100 µM | > 100 µM | > 100 µM | > 100 µM | > 100 µM | > 100 µM | > 100 µM
20 | CCCCCCc1cc2cc(-c3nc4ccccc4[nH]3)c(=Nc3ccccc3C)oc2cc1O | 1.73 µM | 4.1 µM | 2.75 µM | 6.61 µM | 2470 nM | 7.86 µM | 0.492 µM | 5.12 µM | 2.11 µM | 5.11 µM | > 100 µM | > 100 µM | 1.88 µM | 3.43 µM | 2 µM | 4.96 µM | 2.44 µM | 6.29 µM | 4.24 µM | 22.7 µM
21 | CCC[CH2][Sn]([CH2]CCC)([O]C(=O)c1cc(F)ccc1F)[O][Sn]([CH2]CCC)([CH2]CCC)[O]C(=O)c1cc(F)ccc1F | 0.314 µM | 1.27 µM | 0.18 µM | 0.496 µM | 91.6 nM | > 100 µM | 0.148 µM | 0.491 µM |  | 0.0658 µM | 0.899 µM | 2.21 µM | 0.158 µM | 0.405 µM | 0.626 µM | 1.83 µM | 1.77 µM | 3.68 µM | 0.522 µM | 1.88 µM
22 | CC1=C(/C=C/C(=O)O)C(C)(C)CCC1 |  | > 100 µM |  | > 100 µM |  | > 100 µM |  | > 100 µM |  | > 100 µM |  | > 100 µM |  | > 100 µM |  | > 100 µM |  | > 100 µM |  | > 100 µM

— PubChem BioAssay (NCI)
